Measured values as given in patent publication US20250326732A1 (Pretzel Therapeutics, Inc., priority 2021, published 2025).

Molecular target: POLRMT (Homo sapiens (Human), UniProt O00411)
Assay: homogeneous TR-FRET assay of mitochondrial transcription (inhibition of POLRMT)
Format: biochemical
Conditions: 7.5 nM POLRMT, 15 nM TFB2M, 30 nM TFAM, 0.5 nM DNA template, 500 μM NTPs, 37° C. for 60 minutes
In short: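 POLRMT transcription from linearized pUC-LSP DNA template; RNA product detected by hybridization of ATTO647 acceptor (1 nM) and biotinylated donor (3 nM) probes plus Europium-streptavidin. Reaction stopped with EDTA/700 mM NaCl buffer, pH 7.5.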

Sequence of POLRMT (O00411 42-1230): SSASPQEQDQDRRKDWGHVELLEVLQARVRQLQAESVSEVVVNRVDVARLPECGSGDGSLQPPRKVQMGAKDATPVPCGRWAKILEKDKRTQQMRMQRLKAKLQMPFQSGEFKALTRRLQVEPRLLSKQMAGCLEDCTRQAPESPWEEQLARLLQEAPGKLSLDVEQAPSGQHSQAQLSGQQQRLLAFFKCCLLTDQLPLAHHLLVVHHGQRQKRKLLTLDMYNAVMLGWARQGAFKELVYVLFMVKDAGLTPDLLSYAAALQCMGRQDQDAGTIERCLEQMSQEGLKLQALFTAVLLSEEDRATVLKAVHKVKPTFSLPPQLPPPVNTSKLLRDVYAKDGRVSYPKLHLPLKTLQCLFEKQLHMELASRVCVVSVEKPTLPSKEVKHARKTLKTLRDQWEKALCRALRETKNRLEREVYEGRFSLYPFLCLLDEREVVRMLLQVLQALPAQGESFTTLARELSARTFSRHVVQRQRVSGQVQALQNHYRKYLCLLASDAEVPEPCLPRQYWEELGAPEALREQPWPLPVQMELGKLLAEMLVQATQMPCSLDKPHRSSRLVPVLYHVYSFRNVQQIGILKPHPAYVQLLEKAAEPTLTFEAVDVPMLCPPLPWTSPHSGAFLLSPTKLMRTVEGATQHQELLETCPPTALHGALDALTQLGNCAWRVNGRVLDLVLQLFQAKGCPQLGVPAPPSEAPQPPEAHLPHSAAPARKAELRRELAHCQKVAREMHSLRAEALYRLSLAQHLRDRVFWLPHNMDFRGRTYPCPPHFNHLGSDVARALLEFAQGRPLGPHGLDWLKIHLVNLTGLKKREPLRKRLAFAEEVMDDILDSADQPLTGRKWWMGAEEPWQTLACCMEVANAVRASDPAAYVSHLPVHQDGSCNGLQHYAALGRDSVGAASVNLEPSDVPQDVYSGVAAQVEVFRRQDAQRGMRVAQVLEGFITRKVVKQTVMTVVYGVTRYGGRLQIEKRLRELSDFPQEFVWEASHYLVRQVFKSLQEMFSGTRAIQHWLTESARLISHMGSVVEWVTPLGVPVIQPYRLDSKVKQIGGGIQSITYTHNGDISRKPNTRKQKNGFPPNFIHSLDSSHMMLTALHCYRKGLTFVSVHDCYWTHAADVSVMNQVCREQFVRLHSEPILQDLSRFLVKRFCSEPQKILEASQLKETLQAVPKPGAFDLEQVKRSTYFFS

| IC50 [µM] | SMILES |
| --- | --- |
| > 100 | COc1ccccc1-c1cc(=O)oc2cc(NC(C)=O)ccc12 [Example 29, N-(4-(2-methoxyphenyl)-2-oxo-2H-chromen-7-yl)acetamide] |
| 5 | Cc1ccccc1-c1cc(=O)oc2cc(CC(C)C(N)=O)ccc12 (single isomer, unassigned) [Example 69, 2-methyl-3-(2-oxo-4-(o-tolyl)-2H-chromen-7-yl)propanamide] |
| 12 | COC(=O)C1CN(C(=O)c2ccc3c(-c4ccccc4C)cc(=O)oc3c2)C1 [Example 182, methyl 1-(2-oxo-4-(o-tolyl)-2H-chromene-7-carbonyl) azetidine-3-carboxylate] |
| > 100 | Cc1cc(O[C@H](C)C(=O)N2CCCCC2)c2c(-c3ccc(F)cc3)cc(=O)oc2c1 [Example 161, (R)-4-(4-fluorophenyl)-7-methyl-5-((1-oxo-1-(piperidin-1-yl)propan-2-yl)oxy)-2H-chromen-2-one] |
| 32 | Cc1ccccc1-c1cc(=O)oc2cc(CC(C)C(=O)N3CCC[C@H](C#N)C3)ccc12 (single isomer, unassigned) [Example 84] |
| 6 | CCOC(C)c1ccc2c(-c3ccc(F)cc3Cl)cc(=O)oc2c1 (single isomer, unassigned) [Example 42, 4-(2-chloro-4-fluorophenyl)-7-(1-ethoxyethyl)-2H-chromen-2-one] |
| 0.9 | Cc1ccccc1-c1cc(=O)oc2cc(NCC(=O)OC(C)(C)C)ccc12 [Example 61, tert-butyl (2-oxo-4-(o-tolyl)-2H-chromen-7-yl)glycinate] |
| 3 | Cc1ccccc1-c1cc(=O)oc2cc(N[C@@H](CC(C)C)C(=O)O)ccc12 [Example 73, (2-oxo-4-(o-tolyl)-2H-chromen-7-yl)-L-leucine] |
| 7 | Cc1ccccc1-c1cc(=O)oc2cc(N(C)CC(=O)NS(C)(=O)=O)ccc12 [Example 191, 2-(methyl(2-oxo-4-(o-tolyl)-2H-chromen-7-yl)amino)-N-(methylsulfonyl)acetamide] |
| 19 | Cc1ccc2c(-c3ccc(F)cc3Cl)cc(=O)oc2c1 [Example 03, 4-(2-chloro-4-fluorophenyl)-7-methyl-2H-chromen-2-one] |
| 5 | Cc1ccccc1-c1cc(=O)oc2cc(C(C)CC(=O)N3CCC[C@H](C(=O)O)C3)ccc12 (single isomer, unassigned) [Example 82] |
| 9 | CNC(=O)C1CC1c1ccc2c(-c3ccccc3C)cc(=O)oc2c1 (stereo not drawn) [Example 135, chiral-N-methyl-2-(2-oxo-4-(o-tolyl)-2H-chromen-7-yl)cyclopropane-1-carboxamide] |
| 0.03 | Cc1ccccc1-c1cc(=O)oc2cc(N(C)[C@H](C)C(=O)N3CCC[C@H](C(=O)O)C3)ccc12 [Example 75, (S)-1-(N-methyl-N-(2-oxo-4-(o-tolyl)-2H-chromen-7-yl)-D-alanyl)piperidine-3-carboxylic acid] |
| 9 | CCOC(=O)[C@H]1CCCN(C(=O)C(C)Cc2ccc3c(-c4ccccc4C)cc(=O)oc3c2)C1 (single isomer, unassigned) [Example 87] |
| 0.07 | C[C@H](C(=O)N1CCOCC1)N(C)c1ccc2c(-c3ccc(F)cc3Cl)cc(=O)oc2c1 [Example 55, (R)-4-(2-chloro-4-fluorophenyl)-7-(methyl(1-morpholino-1-oxopropan-2-yl)amino)-2H-chromen-2-one] |
| 0.7 | Cc1ccccc1-c1cc(=O)oc2cc(NCc3ccon3)ccc12 [Example 185, 7-((isoxazol-3-ylmethyl)amino)-4-(o-tolyl)-2H-chromen-2-one] |

| IC50 [µM] | SMILES |
| --- | --- |
| 7 | O=C(O)CCNc1ccc2c(-c3ccc(F)cc3Cl)cc(=O)oc2c1 [Example 129, 3-((4-(2-chloro-4-fluorophenyl)-2-oxo-2H-chromen-7-yl)amino)propanoic acid] |
| 44 | Cc1ccccc1-c1cc(=O)oc2cc(C(C)N(C)C)ccc12 (centres unmarked) [Example 78, 7-(1-(dimethylamino)ethyl)-4-(o-tolyl)-2H-chromen-2-one] |
| 42 | CC(=O)NC[C@@H]1CCN(C(=O)c2ccc3c(-c4ccccc4C)cc(=O)oc3c2)C1 [Example 196, (S)—N-((1-(2-oxo-4-(o-tolyl)-2H-chromene-7-carbonyl)pyrrolidin-3-yl)methyl)acetamide] |
| 0.1 | Cc1ccccc1-c1cc(=O)oc2cc(N(C)CC(=O)NC3CCOCC3)ccc12 [Example 139, 2-(methyl(2-oxo-4-(o-tolyl)-2H-chromen-7-yl)amino)-N-(tetrahydro-2H-pyran-4-yl)acetamide] |
| 0.9 | Cc1ccccc1-c1cc(=O)oc2cc(NC(C)C(N)=O)ccc12 (single isomer, unassigned) [Example 189, 2-((2-oxo-4-(o-tolyl)-2H-chromen-7-yl)amino)propanamide] |
| 12 | CC(=O)N(C)c1ccc2c(-c3ccccc3C)cc(=O)oc2c1 [Example 44, N-methyl-N-(2-oxo-4-(o-tolyl)-2H-chromen-7-yl)acetamide] |
| 1 | Cc1ccccc1-c1cc(=O)oc2cc(NCC(C)C(=O)O)ccc12 (single isomer, unassigned) [Example 154-1, 2-methyl-3-((2-oxo-4-(o-tolyl)-2H-chromen-7-yl)amino)propanoic acid] |
| 0.08 | Cc1ccccc1-c1cc(=O)oc2cc(CC(C)C(=O)N3CCCCC3)ccc12 (single isomer, unassigned) [Example 62, 7-(2-methyl-3-oxo-3-(piperidin-1-yl)propyl)-4-(o-tolyl)-2H-chromen-2-one] |
| > 100 | CC(=O)NC1CCCN(C(=O)c2ccc3c(-c4ccccc4C)cc(=O)oc3c2)C1 (single isomer, unassigned) [Example 175, N-(1-(2-oxo-4-(o-tolyl)-2H-chromene-7-carbonyl)piperidin-3-yl)acetamide] |
| 0.2 | Cc1ccccc1-c1cc(=O)oc2cc(CC(C)C(=O)O)ccc12 (centres unmarked) [Example 52, 2-methyl-3-[4-(o-tolyl)-2-oxo-chromen-7-yl]propanoic acid] |
| 0.05 | Cc1ccccc1-c1cc(=O)oc2cc(N(C)Cc3ccn[nH]3)ccc12 [Example 178, 7-(((1H-pyrazol-5-yl)methyl)(methyl)amino)-4-(o-tolyl)-2H-chromen-2-one] |
| 0.05 | C[C@H](C(=O)N1CCCCC1)N(C)c1ccc2c(-c3ccc(F)cc3Cl)cc(=O)oc2c1 [Example 45, (R)-4-(2-chloro-4-fluorophenyl)-7-(methyl(1-oxo-1-(piperidin-1-yl)propan-2-yl)amino)-2H-chromen-2-one] |
| 0.2 | CNC(=O)C1CC1c1ccc2c(-c3ccccc3C)cc(=O)oc2c1 (stereo not drawn) [Example 136, chiral-N-methyl-2-(2-oxo-4-(o-tolyl)-2H-chromen-7-yl)cyclopropane-1-carboxamide] |
| 27 | Cc1ccccc1-c1cc(=O)oc2cc(C(=O)N(C)CC(N)=O)ccc12 [Example 112, N-(2-amino-2-oxoethyl)-N-methyl-2-oxo-4-(o-tolyl)-2H-chromene-7-carboxamide] |
| 0.06 | Cc1ccccc1-c1cc(=O)oc2cc(CC(C)C(=O)N3CCC[C@H](C#N)C3)ccc12 (single isomer, unassigned) [Example 83] |
| 0.3 | CCOC(=O)[C@@H]1C[C@@H]1c1ccc2c(-c3ccccc3C)cc(=O)oc2c1 [Example 224, ethyl (1R,2S)-2-(2-oxo-4-(o-tolyl)-2H-chromen-7-yl)cyclopropane-1-carboxylate] |
